{"source": "paper PMC5760849", "about": "(2017)", "key": {"[1]": {"system": "(G4C2)4 RNA G-Q, dual-labelled (RNA, G4) GGGGCCGGGGCCGGGGCCGGGGCC", "assay": "FRET melting", "settings": "Na+ (10 mM sodium cacodylate); pH 7.35; compound 2 μM; screening threshold, exact value only in figure"}, "[2]": {"system": "(G4C2)4 RNA (CD) (RNA, G4) GGGGCCGGGGCCGGGGCCGGGGCC", "assay": "CD, induced signal 350–550 nm", "settings": "Na+ (10 mM sodium cacodylate); pH 7.35; RNA 1 μM; compound 2 μM"}}, "data": [{"compound": "N=C(N)c1ccc(-c2ccc(-c3ccc(-c4ccc(C(=N)N)cn4)o3)o2)nc1", "values": [{"measurement": "ΔTm", "setting": "[1]", "value": "> 13", "unit": "°C"}, {"measurement": "binding", "setting": "[2]", "value": "yes"}]}, {"compound": "N=C(N)c1ccc(-c2ccc(-c3ccc(-c4ccc(C(=N)N)cn4)[se]3)[se]2)nc1", "values": [{"measurement": "ΔTm", "setting": "[1]", "value": "> 13", "unit": "°C"}, {"measurement": "binding", "setting": "[2]", "value": "yes"}]}, {"compound": "N=C(N)c1ccc(-c2ccc(-c3ccc(-c4ccc(C(=N)N)cn4)s3)s2)nc1", "values": [{"measurement": "ΔTm", "setting": "[1]", "value": "> 13", "unit": "°C"}, {"measurement": "binding", "setting": "[2]", "value": "yes"}]}]}
